Data: PMC12064818, “A general assay platform to study protein pharmacology using ligand-dependent structural dynamics” (Nature Communications, 2025)
Several values for one entry are separate records, joined by “and”; a condition that tells them apart may be missing. Equal entries are not always repeated.

Biological target: FLuc-C-NLuc (firefly luciferase) (Photinus pyralis, UniProt P08659, form not given/L550V)
Assay: SDR assay, FLuc-C-NLuc
Details: for SDR + 10 mM ATP / SDR No ATP: 1 nM FLuc-C-NLuc, replicates; for SDR + 10 mM ATP / SDR No ATP / 1 nM FLuc-C-NLuc + 10 mM ATP, Mean / 1 nM FLuc-C-NLuc No ATP, Mean: Log [PTC124]; for SDR assay statistics Ave RLU / SDR assay statistics S:B / SDR assay statistics S:N / SDR assay statistics Z’: 32.8 µM ligand; for 1 nM FLuc-C-NLuc + 10 mM ATP, Mean / 1 nM FLuc-C-NLuc No ATP, Mean: SDR

Chain of FLuc-C-NLuc (firefly luciferase) (P08659 2-550 L550V, form open): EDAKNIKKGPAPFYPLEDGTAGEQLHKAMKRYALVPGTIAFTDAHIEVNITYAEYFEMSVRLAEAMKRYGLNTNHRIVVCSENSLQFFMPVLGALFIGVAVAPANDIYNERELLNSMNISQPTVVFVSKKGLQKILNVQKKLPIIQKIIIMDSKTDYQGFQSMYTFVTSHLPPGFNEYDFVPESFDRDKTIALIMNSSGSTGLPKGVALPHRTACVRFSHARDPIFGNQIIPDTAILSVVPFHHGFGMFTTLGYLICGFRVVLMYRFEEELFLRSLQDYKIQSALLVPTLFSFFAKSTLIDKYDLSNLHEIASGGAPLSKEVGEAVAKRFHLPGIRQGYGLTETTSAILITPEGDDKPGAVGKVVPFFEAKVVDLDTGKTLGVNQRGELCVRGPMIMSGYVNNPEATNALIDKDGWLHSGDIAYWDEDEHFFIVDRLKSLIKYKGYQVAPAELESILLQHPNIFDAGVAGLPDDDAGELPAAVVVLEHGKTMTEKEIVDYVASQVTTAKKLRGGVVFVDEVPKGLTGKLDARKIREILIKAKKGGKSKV

## O=C(O)c1cccc(-c2noc(-c3ccccc3F)n2)c1 [PTC124, reference compound]
0 μM ATP
  pSDR50, FLuc-C-NLuc (1 nM): 5.88 ± 0.04
M -4.48
  SDR + 10 mM ATP: 7557.2 RLU and 7497.6 RLU and 7631.5 RLU and 7551.6 RLU and 7524.6 RLU and 7378.2 RLU
  SDR No ATP: 7094.5 RLU and 7036.1 RLU and 7197.7 RLU and 7251.5 RLU and 7107.6 RLU and 7010.0 RLU
  1 nM FLuc-C-NLuc + 10 mM ATP, Mean: 7523.5 RLU
  1 nM FLuc-C-NLuc No ATP, Mean: 7116.2 RLU
M -4.96
  SDR + 10 mM ATP: 8653.1 RLU and 8918.3 RLU and 8729.5 RLU and 8753.4 RLU and 8625.3 RLU and 8631.1 RLU
  SDR No ATP: 7649.4 RLU and 7690.6 RLU and 7782.9 RLU and 7784.7 RLU and 7753.8 RLU and 7789.6 RLU
  1 nM FLuc-C-NLuc + 10 mM ATP, Mean: 8718.4 RLU
  1 nM FLuc-C-NLuc No ATP, Mean: 7741.8 RLU
M -5.44
  SDR + 10 mM ATP: 9503.1 RLU and 9394.8 RLU and 9366.2 RLU and 9511.1 RLU and 9276.8 RLU and 9264.6 RLU
  SDR No ATP: 7463.4 RLU and 7521.3 RLU and 7506.8 RLU and 7660.8 RLU and 7389.5 RLU and 7591.3 RLU
  1 nM FLuc-C-NLuc + 10 mM ATP, Mean: 9386.1 RLU
  1 nM FLuc-C-NLuc No ATP, Mean: 7522.2 RLU
M -5.91
  SDR + 10 mM ATP: 9834.3 RLU and 9880.8 RLU and 9675.2 RLU and 9786.2 RLU and 9362.5 RLU and 9414.4 RLU
  SDR No ATP: 7041.2 RLU and 7015.2 RLU and 7004.0 RLU and 7050.2 RLU and 7076.1 RLU and 7039.0 RLU
  1 nM FLuc-C-NLuc + 10 mM ATP, Mean: 9658.9 RLU
  1 nM FLuc-C-NLuc No ATP, Mean: 7037.6 RLU
M -6.39
  SDR + 10 mM ATP: 9915.0 RLU and 9970.8 RLU and 10012.5 RLU and 10081.2 RLU and 9830.9 RLU and 9904.0 RLU
  SDR No ATP: 6691.1 RLU and 6782.7 RLU and 6754.8 RLU and 6847.3 RLU and 6762.8 RLU and 6799.3 RLU
  1 nM FLuc-C-NLuc + 10 mM ATP, Mean: 9952.4 RLU
  1 nM FLuc-C-NLuc No ATP, Mean: 6773.0 RLU
M -6.87
  SDR + 10 mM ATP: 10082.6 RLU and 10234.0 RLU and 10143.0 RLU and 10158.0 RLU and 9950.0 RLU and 10015.6 RLU
  SDR No ATP: 6611.5 RLU and 6294.6 RLU and 6649.4 RLU and 6762.3 RLU and 6579.8 RLU and 6635.0 RLU
  1 nM FLuc-C-NLuc + 10 mM ATP, Mean: 10097.2 RLU
  1 nM FLuc-C-NLuc No ATP, Mean: 6588.7 RLU
M -7.35
  SDR + 10 mM ATP: 10197.1 RLU and 10347.4 RLU and 10179.3 RLU and 10327.2 RLU and 10158.4 RLU and 10151.6 RLU
  SDR No ATP: 6611.5 RLU and 6675.5 RLU and 6753.6 RLU and 6721.7 RLU and 6667.7 RLU and 6659.2 RLU
  1 nM FLuc-C-NLuc + 10 mM ATP, Mean: 10226.8 RLU
  1 nM FLuc-C-NLuc No ATP, Mean: 6681.5 RLU
M -7.82
  SDR + 10 mM ATP: 10273.2 RLU and 10529.0 RLU and 10260.9 RLU and 10390.3 RLU and 10195.8 RLU and 10173.3 RLU
  SDR No ATP: 6601.3 RLU and 6794.9 RLU and 6657.3 RLU and 6777.0 RLU and 6066.9 RLU and 6627.0 RLU
  1 nM FLuc-C-NLuc + 10 mM ATP, Mean: 10303.8 RLU
  1 nM FLuc-C-NLuc No ATP, Mean: 6587.4 RLU
M -8.30
  SDR + 10 mM ATP: 10428.2 RLU and 10351.9 RLU and 10431.4 RLU and 10340.3 RLU and 10350.0 RLU and 10135.7 RLU
  SDR No ATP: 6797.1 RLU and 6778.7 RLU and 6811.3 RLU and 6783.1 RLU and 6776.8 RLU and 6755.1 RLU
  1 nM FLuc-C-NLuc + 10 mM ATP, Mean: 10339.6 RLU
  1 nM FLuc-C-NLuc No ATP, Mean: 6783.7 RLU
M -8.78
  SDR + 10 mM ATP: 10307.0 RLU and 10240.9 RLU and 10295.8 RLU and 10255.7 RLU and 10212.3 RLU and 10156.0 RLU
  SDR No ATP: 6765.6 RLU and 6820.8 RLU and 6789.0 RLU and 6870.9 RLU and 6762.2 RLU and 6786.7 RLU
  1 nM FLuc-C-NLuc + 10 mM ATP, Mean: 10244.6 RLU
  1 nM FLuc-C-NLuc No ATP, Mean: 6799.2 RLU
M -9.25
  SDR + 10 mM ATP: 9955.6 RLU and 10061.6 RLU and 10070.3 RLU and 10144.7 RLU and 9901.2 RLU and 9937.3 RLU
  SDR No ATP: 6778.5 RLU and 6738.4 RLU and 6784.4 RLU and 6835.7 RLU and 6812.5 RLU and 6775.6 RLU
  1 nM FLuc-C-NLuc + 10 mM ATP, Mean: 10011.8 RLU
  1 nM FLuc-C-NLuc No ATP, Mean: 6787.5 RLU
M -9.73
  SDR + 10 mM ATP: 9060.9 RLU and 8791.4 RLU and 9269.7 RLU and 9103.3 RLU and 8979.5 RLU and 9077.2 RLU
  SDR No ATP: 6814.0 RLU and 6880.4 RLU and 6857.6 RLU and 6871.7 RLU (2×) and 6648.1 RLU
  1 nM FLuc-C-NLuc + 10 mM ATP, Mean: 9047.0 RLU
  1 nM FLuc-C-NLuc No ATP, Mean: 6823.9 RLU
M -10.21
  SDR + 10 mM ATP: 8039.8 RLU and 7910.0 RLU and 8237.3 RLU and 8034.2 RLU and 8059.8 RLU and 8095.1 RLU
  SDR No ATP: 6863.1 RLU and 6890.7 RLU and 6909.9 RLU and 6915.4 RLU and 6885.5 RLU and 6851.9 RLU
  1 nM FLuc-C-NLuc + 10 mM ATP, Mean: 8062.7 RLU
  1 nM FLuc-C-NLuc No ATP, Mean: 6886.1 RLU
M -10.69
  SDR + 10 mM ATP: 7243.2 RLU and 7192.1 RLU and 7498.0 RLU and 7333.4 RLU and 7436.9 RLU and 7459.7 RLU
  SDR No ATP: 6866.7 RLU and 6851.6 RLU (2×) and 6906.1 RLU and 6919.7 RLU and 6944.4 RLU
M -11.16
  SDR + 10 mM ATP: 6972.7 RLU and 6906.8 RLU (2×) and 7044.6 RLU and 7092.1 RLU and 7092.6 RLU
  SDR No ATP: 6852.5 RLU and 6810.5 RLU and 6865.3 RLU and 6827.1 RLU and 6885.6 RLU and 6853.6 RLU
M -11.64
  SDR + 10 mM ATP: 6987.2 RLU and 6840.0 RLU and 7030.1 RLU and 6788.2 RLU and 7034.1 RLU and 6802.7 RLU
  SDR No ATP: 6913.4 RLU and 6769.3 RLU and 6893.0 RLU and 6868.3 RLU and 6877.6 RLU and 6825.9 RLU
10 μM ATP
  pSDR50, FLuc-C-NLuc (1 nM): 9.95 ± 0.05
FLuc-C-NLuc (1 nM) + 10 mM ATP
  SDR assay statistics Ave RLU: 8287.4 RLU
  SDR assay statistics S:B: 1.2
  SDR assay statistics S:N: 3.4
  SDR assay statistics Z’: -0.259
FLuc-C-NLuc (1 nM) No ATP
  SDR assay statistics Ave RLU: 7850.3 RLU
  SDR assay statistics S:B: 1.2
  SDR assay statistics S:N: 2.6
  SDR assay statistics Z’: -0.605
